In paper PMC9460261, “Need for a Standardized Translational Drug Development Platform: Lessons Learned from the Repurposing of Drugs for COVID-19” (Microorganisms, 2022):
Read-outs that look alike come from different tables or passages of the source.

Experiments:
[1] = Population PK model from satellite PK studies in hamster; conditions: for CL/F, elimination clearance, population estimate (%RSE) / Q/F (Q1/F), inter-compartment clearance, population estimate (%RSE) / VC/F, central volume of distribution, population estimate (%RSE) / VP/F, peripheral volume of distribution, population estimate (%RSE) / KA, absorption rate constant, population estimate (%RSE): hamster of the study's median weight (80-131 g)
[2] = Binding to antiviral assay medium by Rapid Equilibrium Dialysis; conditions: for Fraction unbound in assay medium: 2% serum DMEM media, DNDi in-house data; for fraction unbound: bovine
[3] = Plasma protein binding, human; conditions: for fraction unbound: human, plasma
[4] = Plasma protein binding, hamster; conditions: for fraction unbound: hamster, plasma
SARS-CoV-2 [5] = format: in vivo, Syrian hamster
in vitro = conditions: African green monkey, Selectivity Index (Vero cells)
[6] = test system: SARS-CoV-2 in Calu-3 cells; test: microbe, parasite or virus in culture; conditions: Severe acute respiratory syndrome coronavirus 2, Calu-3, read-out: Calu-3 cells Average IC50
SARS-CoV-2 in Vero cells [7] = test: microbe, parasite or virus in culture; conditions: Severe acute respiratory syndrome coronavirus 2, Vero
SARS-CoV-2 in Vero cells [8] = conditions: for IC50: * one replicate only
[9] = test system: SARS-CoV-2 in Calu-3 cells
SARS-CoV-2 [10] = conditions: cited from earlier work
[11] = female, LGV Golden Syrian, hamster, in vivo
[12] = Population PK model in human (digitized literature data)
[13] = equilibrium dialysis, DNDi in-house
[14] = doses, frequency, duration as in Table 1
[15] = read-out: VERO cells Average IC50, With Pgp pump inhibitor, 2 μM CP-100356, * one replicate only
[16] = read-out: VERO cells Average IC50, Without Pgp pump inhibitor, * one replicate only
[17] = antiviral assay medium (DMEM with 2% v/v FCS)
[18] = host cell Calu-3, read-out: SARS-CoV-2 EC50
[19] = host cell Vero, ref 25, read-out: SARS-CoV-2 EC50
[20] = read-out: VERO cells Average IC50, With Pgp pump inhibitor, 2 μM CP-100356
[21] = read-out: VERO cells Average IC50, Without Pgp pump inhibitor
[22] = human, modelled from digitized data, ref 68 (ambroxol), 71-73 (cepharanthine), 78 (fluvoxamine), 80 (molnupiravir)

C[C@@]1(F)[C@H](O)[C@@H](CO)O[C@H]1n1cnc2c(=O)[nH]c(N)nc21 [AT-273]
KTR, population estimate (%RSE) ([1]; hamster 119 g): 12.3 (50.5) h-1
CL/F, elimination clearance, population estimate (%RSE) [1]: 5.77 (33.1) mL/h
Q/F (Q1/F), inter-compartment clearance, population estimate (%RSE) [1]: 6730 (12.2) mL/h
VC/F, central volume of distribution, population estimate (%RSE) [1]: 49200 (13.2) mL
VP/F, peripheral volume of distribution, population estimate (%RSE) [1]: 84800 (27.3) mL
Fraction unbound in assay medium [2]: 99.1%
Fraction unbound in plasma, human [3, 13]: 57.8%
Fraction unbound in plasma, hamster [4, 13]: 95.5%

CCN(CC)Cc1cc(Nc2ccnc3cc(Cl)ccc23)ccc1O [Amodiaquine, amodiaquine]
Activity in SARS-CoV-2 Hamster Model (SARS-CoV-2 [5]; [14]): No (parent)
selectivity ratio (in vitro; With Pgp pump inhibitor): > 19
selectivity ratio (in vitro; Without Pgp pump inhibitor): > 5.7
IC50 [6]: > 50 µM
IC50 (SARS-CoV-2 in Vero cells [7]; read-out: EC50 or IC50, Vero Cells): ~10 µM
IC50 (SARS-CoV-2 in Vero cells [7]; [15]): 2.6 µM
IC50 (SARS-CoV-2 in Vero cells [7]; [16]): 8.8 µM
Route effect (SC) on CL/F ([1]; covariate, hamster model): -85.3 (1.81%)
Route effect (SC) on KA ([1]; covariate, hamster model): -20.4 (19.8%)
CL/F, elimination clearance, population estimate (%RSE) [1]: 4390 (7.44%) mL/h
KA, absorption rate constant, population estimate (%RSE) [1]: 0.0784 (6.52%) h-1
VC/F, central volume of distribution, population estimate (%RSE) [1]: 158 (15.3%) mL
fraction unbound [2, 17]: 0.878
fraction unbound [3]: 0.067
fraction unbound [4]: 0.096
Activity In Vitro; Potency EC50 or IC50 < 10 µM; Vero Cells (SARS-CoV-2 in Vero cells [8]): Yes (Potency EC50 or IC50 < 10 µM)
Activity In Vitro; Potency EC50 or IC50 < 10 µM; Calu-3 Cells [9]: No (Potency EC50 or IC50 < 10 µM)
EC50 (SARS-CoV-2 [10]; [18]): > 50 µM
EC50 (SARS-CoV-2 [10]; host cell Huh7.5, read-out: SARS-CoV-2 EC50): 0.6 µM
EC50 (SARS-CoV-2 [10]; host cell Vero CCL81, read-out: SARS-CoV-2 EC50): 1.6 µM
EC50 (SARS-CoV-2 [10]; host cell Vero E6, ref 29, read-out: SARS-CoV-2 EC50): 10 µM
EC50 (SARS-CoV-2 [10]; host cell Vero E6, ref 30, read-out: SARS-CoV-2 EC50): 4.9 µM
EC50 (SARS-CoV-2 [10]; [19]): 5.2 µM

COC(=O)N[C@H](C(=O)N[C@@H](Cc1ccccc1)[C@@H](O)CN(Cc1ccc(-c2ccccn2)cc1)NC(=O)[C@@H](NC(=O)OC)C(C)(C)C)C(C)(C)C [Atazanavir, atazanavir]
Activity in SARS-CoV-2 Hamster Model (SARS-CoV-2 [5]; [14]): no activity
selectivity ratio (in vitro; Without Pgp pump inhibitor): > 2.2
IC50 [6]: 21 µM
IC50 (SARS-CoV-2 in Vero cells [7]; [15]): > 50 µM
IC50 (SARS-CoV-2 in Vero cells [7]; [16]): 45.5 µM
fraction unbound [2, 17]: 0.348
fraction unbound [4]: 0.2
EC50 (SARS-CoV-2 [10]; atazanavir and ATZ/ritonavir combination, read-out: EC50 in infected A549 lung epithelia cells): 0.6 µM
EC50 (SARS-CoV-2 [10]; host cell A549, read-out: SARS-CoV-2 EC50): 0.2 µM
EC50 (SARS-CoV-2 [10]; host cell Vero E6, ref 23, read-out: SARS-CoV-2 EC50): 2 µM
EC50 (SARS-CoV-2 [10]; host cell Vero E6, ref 24, read-out: SARS-CoV-2 EC50): 9.36 µM
EC50 (SARS-CoV-2 [10]; [19]): > 50 µM

O=c1nc(NO)ccn1[C@@H]1O[C@H](CO)[C@@H](O)[C@H]1O [EIDD-1931]
Fraction unbound in assay medium [2]: 99.7%
Selectivity Index (Vero cells), With Pgp pump inhibitor (SARS-CoV-2 in Vero cells [8]; T: toxicity observed): > 37
Selectivity Index (Vero cells), Without Pgp pump inhibitor (SARS-CoV-2 in Vero cells [8]; T: toxicity observed): > 32
IC50 (SARS-CoV-2 in Vero cells [8]; [20]): 1.3 µM
IC50 (SARS-CoV-2 in Vero cells [8]; [21]): 1.5 µM
IC50 ([9]; read-out: Calu-3 cells Average IC50, * one replicate only): 3.6 µM

CNCCC(Oc1ccc(C(F)(F)F)cc1)c1ccccc1 (stereo not drawn) [Fluoxetine, fluoxetine]
Activity in SARS-CoV-2 Hamster Model (SARS-CoV-2 [5]; hamster, in vivo): No
IC50 (SARS-CoV-2 in Vero cells [7]; read-out: VERO cells Average IC50, With Pgp pump inhibitor): 5.6 µM
IC50 (SARS-CoV-2 in Vero cells [7]; [21]): 7.7 µM
Dose effect on FFP (power) ([1]; covariate, hamster model): -0.0175 (13.7)
CL/F, elimination clearance, population estimate (%RSE) [1]: 447 (7.0) mL/h
KA, absorption rate constant, population estimate (%RSE) [1]: 5.34 (11.7) h-1
VC/F, central volume of distribution, population estimate (%RSE) [1]: 3530 (6.5) mL
fraction unbound [2, 17]: 0.682
fraction unbound [3]: 0.048
fraction unbound [4]: 0.051
Activity In Vitro; Potency EC50 or IC50 < 10 µM; Vero Cells (SARS-CoV-2 in Vero cells [8]): Yes ^T (key: Yes: Potency EC50 or IC50 < 10 µM; No: Potency EC50 or IC50 < 10 µM)
Toxicity observed (^T), Vero Cells (SARS-CoV-2 in Vero cells [8]): Yes ^T
Activity In Vitro; Potency EC50 or IC50 < 10 µM; Calu-3 Cells [9]: No (key: Yes: Potency EC50 or IC50 < 10 µM; No: Potency EC50 or IC50 < 10 µM)

CC(C)C(=O)OC[C@H]1O[C@@H](n2ccc(NO)nc2=O)[C@H](O)[C@@H]1O [Molnupiravir, molnupiravir]
CL/F, elimination clearance, population estimate (%RSE) [11]: 1340 (7.6) mL/h
Dose effect on KA (exp) [11]: -0.00247 (23.7)
KA, absorption rate constant, population estimate (%RSE) [11]: 1.45 (7.5) h-1
Q/F (Q1/F), inter-compartment clearance, population estimate (%RSE) [11]: 15.8 (23.1) mL/h
VC/F, central volume of distribution, population estimate (%RSE) [11]: 172 (21.6) mL
VP/F, peripheral volume of distribution, population estimate (%RSE) [11]: 75.3 (23.0) mL
Activity in SARS-CoV-2 Hamster Model (SARS-CoV-2 [5]; [14]): Yes
Activity in SARS-CoV-2 Hamster Model (SARS-CoV-2 [5]; doses, frequency, duration as in Table 1, listed as molnupiravir): demonstrated in vivo efficacy
selectivity ratio (in vitro; With Pgp pump inhibitor, T: toxicity observed): > 19.4
selectivity ratio (in vitro; Without Pgp pump inhibitor, T: toxicity observed): > 1.9
IC50 [6]: 27.8 µM
IC50 (SARS-CoV-2 in Vero cells [7]; [16]): 26 µM
Activity In Vitro; Potency EC50 or IC50 < 10 µM; Vero Cells (SARS-CoV-2 in Vero cells [8]; in the presence of a P-glycoprotein inhibitor (^Pgp)): Yes ^Pgp (Potency EC50 or IC50 < 10 µM)
IC50 (SARS-CoV-2 in Vero cells [8]; [20]): 2.6 µM
IC50 (SARS-CoV-2 in Vero cells [8]; read-out: VERO cells Average IC50, With Pgp pump inhibitor, 2 μM CP-100356, listed as molnupiravir): < 10 µM
Dose effect on MTT (power) ([12]; covariate, human model): 0.127 (10.8%)
CL/F, population estimate (%RSE) [12, 22]: 80.9 (3.9%) L/h
VC/F, population estimate (%RSE) [12, 22]: 128 (5.7%) L
MTT, population estimate (%RSE) ([12]; human, modelled from digitized data, ref 68 (ambroxol), 78 (fluvoxamine), 80 (molnupiravir)): 1.0 (3.3%) h
Activity In Vitro; Potency EC50 or IC50 < 10 µM; Calu-3 Cells [9]: Yes (Potency EC50 or IC50 < 10 µM)
EC50 (SARS-CoV-2 [10]; [18]): 0.1 µM

CC(C)OC(=O)[C@H](C)N[P@](=O)(OC[C@H]1O[C@@H](n2ccc(=O)[nH]c2=O)[C@](C)(F)[C@@H]1O)Oc1ccccc1 [Sofosbuvir, sofosbuvir]
Activity in SARS-CoV-2 Hamster Model (SARS-CoV-2 [5]; [14]): No
Activity in SARS-CoV-2 Hamster Model (SARS-CoV-2 [5]; doses, frequency, duration as in Table 1, listed as sofosbuvir): no activity
IC50 [6]: > 50 µM
IC50 (SARS-CoV-2 in Vero cells [7]; [15]): > 50 µM
IC50 (SARS-CoV-2 in Vero cells [7]; [16]): > 50 µM
CL/F, elimination clearance, population estimate (%RSE) [1]: 122000 (14.4) mL/h
KA, absorption rate constant, population estimate (%RSE) [1]: 0.622 (15.9) h-1
Q/F (Q1/F), inter-compartment clearance, population estimate (%RSE) [1]: 139000 (17.2) mL/h
VC/F, central volume of distribution, population estimate (%RSE) [1]: 46600 (29.9) mL
VP/F, peripheral volume of distribution, population estimate (%RSE) [1]: 1490000 (27.9) mL
fraction unbound [2]: 0.716
Activity In Vitro; Potency EC50 or IC50 < 10 µM; Vero Cells (SARS-CoV-2 in Vero cells [8]): No (Potency EC50 or IC50 < 10 µM)
Activity In Vitro; Potency EC50 or IC50 < 10 µM; Calu-3 Cells [9]: No (Potency EC50 or IC50 < 10 µM)
EC50 (SARS-CoV-2 [10]; [18]): 7.3 µM
EC50 (SARS-CoV-2 [10]; host cell HuH-7, read-out: SARS-CoV-2 EC50): 5.1 µM
EC50 (SARS-CoV-2 [10]; host cell Vero, ref 26, read-out: SARS-CoV-2 EC50): > 10 µM
